# Results reported in PMC12521527, “In vivo self-assembled nano-PROTAC for the dual degradation of AR and HSP90 to overcome castration-resistant prostate cancer resistance” (Signal Transduction and Targeted Therapy, 2025).
# Numbered stars: 1 amine (or outer) side, 2 acyl side, 3 side chain; on linkers, the order of the positions; unused ones are H or OH. Square brackets hold non-standard residues; d marks the D form. Peptide text beside a SMILES is read from it. * marks the point of attachment. X2 = CC1(C)C(=O)N(c2ccc(C#N)c(C(F)(F)F)c2)C(=S)N1c1ccc(C(=O)*)c(F)c1; X1 = O=C1CCC(N2C(=O)c3cccc(N(CC(=O)[*:2])[*:1])c3C2=O)C(=O)N1; EuK = O=C(O)CC[C@H](NC(=O)N[C@@H](CCCCN*)C(=O)O)C(=O)O; 2Nal = N[C@@H](Cc1ccc2ccccc2c1)C(=O)O
# How the values were obtained:
# [1] = tested on: 22Rv1 xenograft tumor; assay: Antitumor efficacy in 22Rv1 xenograft mice; assay type: in vivo, BALB/c nude mice; settings: for tumor volume / median survival: n = 6
# Excerpt: To evaluate the therapeutic potential and superiority of Psa-AR in prostate cancer, we established subcutaneous xenograft tumor models using AR-mutant 22Rv1 cells.[51] All procedures strictly complied with the Guide for the Care and Use of Laboratory Animals and were approved by the Committee for Animal Research of the National Center for Nanoscience and Technology. When the tumor volume reached ~100 mm³, 22Rv1-bearing mice were randomized into three groups (n = 6/group): the PBS control, Psa-AR, and P-AR groups. Treatments were administered via tail vein injection every other day for five cycles. The tumor volume and body weight were monitored every other day for 20 days (Fig. 6a). […] The individual tumor growth curves for each group are presented in Supplementary Fig. 20. No obvious body weight loss was observed during treatment (Fig. 6c). […] To elucidate the mechanistic basis of tumor suppression, we quantitatively assessed AR and HSP90 protein expression in excised tumor tissues through IF. […] This dual-target degradation profile directly correlates with the observed therapeutic efficacy, validating the assembly driven target engagement and degradation strategy. […] To address the critical limitations of conventional PROTACs, particularly the Hook effect-induced nonlinear pharmacokinetics and narrow therapeutic window. We rigorously evaluated the dose-responsive antitumor efficacy of Psa-AR in 22Rv1 xenograft models. Mice bearing subcutaneous tumors received escalating doses (10, 20, or 30 mg/kg) via intravenous administration every 48 h for five consecutive treatment cycles. The tumor volume and body weight were evaluated for 20 days. Tumor volume was suppressed in a dose-dependent manner, with a mean tumor volume of […], a mean tumor volume of 536 mm^3 at 20 mg/kg and a mean tumor volume of 220 mm^3 at 10 mg/kg (Fig. 6h). The individual tumor growth curves for each group are presented in Supplementary Fig. 21. […] IF analysis of tumor sections provided spatially resolved dose-dependent quantification of AR and HSP90 proteolysis. […] Collectively, the dose-dependent tumor suppression and coordinated target proteolysis observed in the 22Rv1 xenograft model mechanistically validated the therapeutic superiority of in situ self-assembled Psa-AR. To systematically evaluate the therapeutic advantages of the dual-protein targeting strategy of Psa-AR through simultaneous degradation of AR and HSP90 in overcoming tumor drug resistance, this study compared the antitumor efficacy of Psa-AR with that of current clinical regimens (including the AR inhibitor enzalutamide, the HSP90 inhibitor pimitespib, and their combination) in 22Rv1 xenograft models (Fig. 7a). The experimental protocol was designed as follows: When the tumor volume reached ~100 mm³, the tumor-bearing mice were
# Fig. 6 In vivo antitumor efficacy of Psa-AR. a Schematic illustration of the tumor inoculation and treatment protocol for 22Rv1 xenograft mice. (n = 6 per group) b Observation of the tumor inhibitory effect on 22Rv1 xenograft mice in PBS, P-AR, or Psa-AR (20 mg/kg in 200 μL of PBS) over 20 days of treatment. c Body weight changes in 22Rv1 xenograft mice in different treatment groups over 20 days. d Kaplan‒Meier survival curves of 22Rv1 xenograft mice in different groups over 20 days of treatment. e Immunofluorescence analysis of AR protein levels in 22Rv1 tumor tissues after treatment with PBS, P-AR, or Psa-AR (20 mg/kg in 200 μL of PBS) for 20 days. Scale bar: 20 μm. f Immunofluorescence analysis of the HSP90 protein levels in 22Rv1 tumor tissues after treatment with PBS, P-AR, or Psa-AR (20 mg/kg in 200 μL of PBS) for 20 days. Scale bar: 20 μm. g Terminal deoxynucleotidyl transferase (TdT) dUTP nick-end labeling (TUNEL) staining of tumors after treatment with PBS, P-AR, or Psa-AR (20 mg/kg in 200 μL of PBS) for 20 days. […]
# [2] = Cellular cytotoxicity, LNCaP; assay type: cell-based; settings: human, LNCaP cells
# [3] = In vivo biocompatibility in healthy mice; settings: healthy BALB/c mice
# Method: Fig. 7 In vivo antitumor efficacy of Psa-AR. a Schematic illustration of the tumor inoculation and treatment protocol for 22Rv1 xenograft mice. (n = 6 per group) b Observation of the tumor inhibitory effect on 22Rv1 xenograft mice in PBS, enzalutamide, pimitespib, Enza, Pimi, and Psa-AR (30 mg/kg in 200 μL of PBS) over 20 days of treatment. (Enza, Pimi: Combination therapy with enzalutamide (AR antagonist) and Pimitespib (HSP90 inhibitor)). c Kaplan‒Meier survival curves of 22Rv1 xenograft mice in different groups over 20 days of treatment. d Changes in the body weights of 22Rv1 xenograft mice in different groups over 20 days of treatment. e Terminal deoxynucleotidyl transferase (TdT) dUTP nick-end labeling (TUNEL) staining of tumors after treatment with PBS, enzalutamide, pimitespib, ENZ, Pimi or Psa-AR (30 mg/kg in 200 μL of PBS) for 20 days. Scale bar: 50 μm. f Hematoxylin‒eosin (H&E) staining of the main organs after treatment with PBS or Psa-AR (30 mg/kg in 200 μL of PBS) for 24 h. Scale bar: 50 μm. g–j Blood biochemistry data, including ALT, AST, ALP, TP, ALB, GLOB, BUN, and CRE levels, of the mice after treatment with Psa-AR (20 mg/kg in 200 μL of PBS) for 1 day or 14 days (n = 3 per group). p values were determined via one-way ANOVA followed by post hoc Tukey’s test. The data are presented as the means ± SDs
# To thoroughly evaluate the in vivo biocompatibility of the Psa-AR degradation system, we performed comprehensive toxicological assessments in healthy BALB/c mice. At 24 h post-administration of either PBS or Psa-AR (30 mg/kg, n = 3 per group), we collected major organs (heart, liver, spleen, lungs, and kidneys) along with serum samples for histopathological and biochemical analysis. […] These comprehensive biosafety evaluations confirmed that the Psa-AR system maintains exceptional biocompatibility, with no acute toxicity observed in vital organs or systemic metabolic pathways. The combined histopathological and biochemical evidence strongly supports the clinical translatability of this targeted protein degradation platform.
structure (smiles),measurement,setting,value
CC1(C)C(=O)N(c2ccc(C#N)c(C(F)(F)F)c2)C(=S)N1c1ccc(C(=O)NCCCC[C@H](NC(=O)CNc2cccc3c2C(=O)N(C2CCC(=O)NC2=O)C3=O)C(=O)N[C@@H](CS)C(=O)N[C@@H](CCC(N)=O)C(=O)N[C@@H](Cc2ccc(O)cc2)C(=O)N[C@@H](CC(N)=O)C(=O)N[C@@H](CCC(N)=O)C(=O)N[C@@H](Cc2ccc(O)cc2)C(=O)N[C@@H](Cc2ccc(O)cc2)C(=O)N[C@@H](Cc2ccc3ccccc3c2)C(=O)NCCCC[C@H](NC(=O)N[C@@H](CCC(=O)O)C(=O)O)C(=O)O)c(F)c1 (stereo partly drawn) [Psa-AR] (H-[X1]K(X2)CQYNQYY[2Nal]-EuK),extension of median survival compared with P-AR controls,[1]; 20 mg/kg study,1.8 fold
same,extension of median survival compared with PBS controls,[1]; 20 mg/kg study,2.2 fold
same,tumor volume,"[1]; 20 mg/kg tail vein every other day, five cycles, 20 days, PBS 1003 mm^3",347 mm^3
same,TUNEL apoptotic index of tumor sections,"[1]; 20 mg/kg, 20 days, compared with PBS control and P-AR",significant increase in the apoptotic index
same,AR and HSP90 protein expression in excised tumor tissues,"[1]; IF, 20 mg/kg, 20 days",AR and HSP90 reduction
same,median survival,"[1]; K-M analysis, 20 mg/kg study, PBS 22 days",48 days
same,TUNEL analysis of tumor tissue sections,"[1]; comparison study, 30 mg/kg, 20 days",increased activation of tumor apoptosis
same,tumor volume,"[1]; comparison study, 20 days, Psa-AR 30 mg/kg i.v. every 2 days x5, enzalutamide 25 mg/kg, pimitespib 15 mg/kg, PBS 1017 mm^3",220 mm^3
same,median survival,"[1]; comparison study, PBS 21 days",46 days
same,body weight during the monitoring cycle,"[1]; dose study, 10, 20, or 30 mg/kg, 20 days",no significant change in the body weight
same,mean tumor volume at 20 mg/kg,"[1]; dose study, intravenous every 48 h, five cycles, 20 days",536 mm^3
same,IC50,[2],11.1 ± 1.4 µM
same,"routine blood analysis (WBC, NEU, LYM, RBC, PLT, HGB, MPV)",[3],no obvious changes were detected
same,"serum biochemistry (ALT, AST, ALP, TP, ALB, GLOB, BUN, CRE) versus PBS","[3]; 30 mg/kg, 24 h, n = 3",not significantly different between the groups
same,"H&E histopathology of major organs (heart, liver, spleen, lungs, kidneys)","[3]; 30 mg/kg, 24 h post-administration, n = 3",no observable pathological changes
